# Patent US6737383B1, “Herbicidal oxadiazolidines” (priority 1999, dated 2004)
# How the values were obtained:
# [1] = tested on: annual bluegrass; assay: Test E annual bluegrass; type: in vivo, Poa annua; details: Preemergence
# [2] = tested on: wild oat; assay: Test E wild oat; type: in vivo, Avena fatua; details: Postemergence
# How it was run: (§1)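 Greenhouse test: compounds in non-phytotoxic solvent with surfactant; for postemergence, sprayed on plants at 1- to 4-leaf stage grown in 60:40 sandy loam/potting mix. Injury rated visually against untreated controls after about 21 to 28 days.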
# [3] = tested on: galium; assay: Test E galium; type: in vivo, Galium aparine; details: Preemergence
# [4] = tested on: lambsquarters; assay: Test E lambsquarters; type: in vivo, Chenopodium album; details: Preemergence
# [5] = tested on: black nightshade; assay: Test E black nightshade; type: in vivo, Solanum nigra; details: Postemergence
# Method: (§2) Compounds evaluated in this test were formulated in a non-phytotoxic solvent mixture which included a surfactant and applied to plants that were in the 1- to 4-leaf stage (postemergence application). A mixture of sandy loam soil and greenhouse potting mix in a 60:40 ratio was used for the postemergence test.
# (§3) Plantings of these crops and weed species were adjusted to produce plants of appropriate size for the postemergence test. All plant species were grown using normal greenhouse practices. Crop and weed species include annual bluegrass (Poa annua), blackgrass (Alopecurus myosuroides), black nightshade (Solanum nigra), chickweed (Stellaria media), common poppy (Papaver rhoeas), deadnettle (Lamium amplexicaule), downy brome (Bromus tectorum), field violet (Viola arvensis), galium (Galium aparine), green foxtail (Setaria viridis), Italian ryegrass (Lolium multiflorum), jointed goatgrass (Aegilops cylindrica), kochia (Kochia scoparia), lambsquarters (Chenopodium album), littleseed canarygrass (Phalaris minor), rape (Brassica napus), redroot pigweed (Amaranthus retroflexus), Russian thistle (Salsola kali), scentless chamomile (Matricaria inodora), spring barley (Hordeum vulgare), sugar beet (Beta vulgaris), sunflower (Helianthus annuus), ivyleaf speedwell (Veronica hederaefolia), spring wheat (Triticum aestivum), winter wheat (Triticum aestivum), wild buckwheat (Polygonum convolvulus), wild mustard (Sinapis arvensis), wild oat (Avena fatua), windgrass (Apera spica-venti) and winter barley (Hordeum vulgare).
# (§4) Treated plants and untreated controls were maintained in a greenhouse for approximately 21 to 28 days, after which all treated plants were compared to untreated controls and visually evaluated. […] A dash response (-) means no test result.
# [6] = tested on: spring barley; assay: Test E spring barley; type: in vivo, Hordeum vulgare; details: Preemergence
# [7] = tested on: chickweed; assay: Test E chickweed; type: in vivo, Stellaria media; details: Postemergence
# How it was run: as §1
# [8] = tested on: annual bluegrass; assay: Test E annual bluegrass; type: in vivo, Poa annua; details: Postemergence
# How it was run: as §1
# [9] = tested on: wild mustard; assay: Test E wild mustard; type: in vivo, Sinapis arvensis; details: Postemergence
# Method: […] A mixture of sandy loam soil and greenhouse potting mix in a 60:40 ratio was used for the postemergence test.
# as §3, §4
# [10] = tested on: downy brome; assay: Test E downy brome; type: in vivo, Bromus tectorum; details: Postemergence; for Plant response rating, Downy brome: 0 to 100 scale
# Method: as §2, §3, §4
# [11] = tested on: chickweed; assay: Test E chickweed; type: in vivo, Stellaria media; details: Preemergence
# [12] = tested on: redroot pigweed; assay: Test E redroot pigweed; type: in vivo, Amaranthus retroflexus; details: Preemergence
# [13] = tested on: jointed goatgrass; assay: Test E jointed goatgrass; type: in vivo, Aegilops cylindrica; details: Preemergence
# [14] = tested on: lambsquarters; assay: Test E lambsquarters; type: in vivo, Chenopodium album; details: Postemergence
# Method: as §2, §3, §4
# [15] = tested on: wild mustard; assay: Test E wild mustard; type: in vivo, Sinapis arvensis; details: Preemergence
# [16] = tested on: common poppy; assay: Test E common poppy; type: in vivo, Papaver rhoeas; details: Postemergence
# Method: as §2, §3, §4
# [17] = tested on: wild buckwheat; assay: Test E wild buckwheat; type: in vivo, Polygonum convolvulus; details: Preemergence
# [18] = tested on: sugar beet; assay: Test E sugar beet; type: in vivo, Beta vulgaris; details: Preemergence
# [19] = tested on: sunflower; assay: Test E sunflower; type: in vivo, Helianthus annuus; details: Preemergence
# [20] = tested on: field violet; assay: Test E field violet; type: in vivo, Viola arvensis; details: Preemergence
# [21] = tested on: field violet; assay: Test E field violet; type: in vivo, Viola arvensis; details: Postemergence
# How it was run: as §1
# [22] = tested on: kochia; assay: Test E kochia; type: in vivo, Kochia scoparia; details: Postemergence
# Method: as §2, §3, §4
# [23] = tested on: Italian ryegrass; assay: Test E Italian ryegrass; type: in vivo, Lolium multiflorum; details: Postemergence
# How it was run: as §1
# [24] = tested on: littleseed canarygrass; assay: Test E littleseed canarygrass; type: in vivo, Phalaris minor; details: Preemergence
# [25] = tested on: littleseed canarygrass; assay: Test E littleseed canarygrass; type: in vivo, Phalaris minor; details: Postemergence
# Method: as §2, §3, §4
# [26] = tested on: spring barley; assay: Test E spring barley; type: in vivo, Hordeum vulgare; details: Postemergence
# Method: as §2, §3, §4
# [27] = Rate 62 g/ha, 0 to 100 scale, 0 no effect, 100 complete control
# [28] = Rate 125 g/ha, 0 to 100 scale (0 no effect, 100 complete control)
# [29] = Rate 250 g/ha, 0 to 100 scale (0 no effect, 100 complete control)
smiles,measurement,setting,value
C=CCn1c(=O)on(C(=O)N(c2ccccc2)C(C)C)c1=O [Compound 93],"Plant response rating, Annual bluegras",[1]; [27],10
same,"Plant response rating, Annual bluegras",[1]; [28],50
same,"Plant response rating, Annual bluegras","[1]; Rate 250 g/ha, 0 to 100 scale",65
same,"Plant response rating, Wild oat","[2]; Rate 62 g/ha, 0 to 100 scale",0
same,"Plant response rating, Wild oat","[2]; Rate 125 g/ha, 0 to 100 scale",0
same,"Plant response rating, Wild oat",[2]; [29],0
same,"Plant response rating, Galium",[3]; [27],10
same,"Plant response rating, Galium",[3]; [28],15
same,"Plant response rating, Galium","[3]; Rate 250 g/ha, 0 to 100 scale",100
same,"Plant response rating, Lambsquarters",[4]; [27],100
same,"Plant response rating, Lambsquarters",[4]; [28],100
same,"Plant response rating, Lambsquarters","[4]; Rate 250 g/ha, 0 to 100 scale",100
same,"Plant response rating, Blk nightshade","[5]; Rate 62 g/ha, 0 to 100 scale",0
same,"Plant response rating, Blk nightshade","[5]; Rate 125 g/ha, 0 to 100 scale",0
same,"Plant response rating, Blk nightshade",[5]; [29],50
same,"Plant response rating, Spring Barley",[6]; [27],5
same,"Plant response rating, Spring Barley",[6]; [28],10
same,"Plant response rating, Spring Barley","[6]; Rate 250 g/ha, 0 to 100 scale",60
same,"Plant response rating, Chickweed","[7]; Rate 62 g/ha, 0 to 100 scale",0
same,"Plant response rating, Chickweed","[7]; Rate 125 g/ha, 0 to 100 scale",0
same,"Plant response rating, Chickweed",[7]; [29],0
same,"Plant response rating, Annual bluegras","[8]; Rate 62 g/ha, 0 to 100 scale",20
same,"Plant response rating, Annual bluegras","[8]; Rate 125 g/ha, 0 to 100 scale",20
same,"Plant response rating, Annual bluegras",[8]; [29],50
same,"Plant response rating, Wild mustard","[9]; Rate 62 g/ha, 0 to 100 scale",0
same,"Plant response rating, Wild mustard","[9]; Rate 125 g/ha, 0 to 100 scale",0
same,"Plant response rating, Wild mustard",[9]; [29],10
same,"Plant response rating, Downy brome",[10]; Rate 62 g/ha,0
same,"Plant response rating, Downy brome",[10]; Rate 125 g/ha,0
same,"Plant response rating, Downy brortie",[10]; [29],0
same,"Plant response rating, Chickweed",[11]; [27],60
same,"Plant response rating, Chickweed",[11]; [28],20
same,"Plant response rating, Chickweed","[11]; Rate 250 g/ha, 0 to 100 scale",100
same,"Plant response rating, Redroot pigweed",[12]; [27],100
same,"Plant response rating, Redroot pigweed",[12]; [28],100
same,"Plant response rating, Redroot pigweed","[12]; Rate 250 g/ha, 0 to 100 scale",90
same,"Plant response rating, Jointed goatgra",[13]; [27],15
same,"Plant response rating, Jointed goatgra",[13]; [28],70
same,"Plant response rating, Jointed goatgra","[13]; Rate 250 g/ha, 0 to 100 scale",60
same,"Plant response rating, Lambsquarters","[14]; Rate 62 g/ha, 0 to 100 scale",0
same,"Plant response rating, Lambsquarters","[14]; Rate 125 g/ha, 0 to 100 scale",0
same,"Plant response rating, Lambsquarters",[14]; [29],0
same,"Plant response rating, Wild mustard",[15]; [27],30
same,"Plant response rating, Wild mustard",[15]; [28],65
same,"Plant response rating, Wild mustard","[15]; Rate 250 g/ha, 0 to 100 scale",80
same,"Plant response rating, Common poppy","[16]; Rate 62 g/ha, 0 to 100 scale",0
same,"Plant response rating, Comnion poppy","[16]; Rate 125 g/ha, 0 to 100 scale",0
same,"Plant response rating, Common poppy",[16]; [29],0
same,"Plant response rating, Wild buckwheat",[17]; [27],30
same,"Plant response rating, Wild buckwheat",[17]; [28],30
same,"Plant response rating, Wild buckwheat","[17]; Rate 250 g/ha, 0 to 100 scale",40
same,"Plant response rating, Sugar beet",[18]; [27],0
same,"Plant response rating, Sugar beet",[18]; [28],10
same,"Plant response rating, Sugar beet","[18]; Rate 250 g/ha, 0 to 100 scale",5
same,"Plant response rating, Sunflower",[19]; [27],10
same,"Plant response rating, Sunflower",[19]; [28],5
same,"Plant response rating, Sunflower","[19]; Rate 250 g/ha, 0 to 100 scale",20
same,"Plant response rating, Field violet",[20]; [27],0
same,"Plant response rating, Field violet",[20]; [28],10
same,"Plant response rating, Field violet","[20]; Rate 250 g/ha, 0 to 100 scale",30
same,"Plant response rating, Field violet","[21]; Rate 62 g/ha, 0 to 100 scale",0
same,"Plant response rating, Field violet","[21]; Rate 125 g/ha, 0 to 100 scale",0
same,"Plant response rating, Field violet",[21]; [29],0
same,"Plant response rating, Kochia","[22]; Rate 62 g/ha, 0 to 100 scale",0
same,"Plant response rating, Kochia","[22]; Rate 125 g/ha, 0 to 100 scale",0
same,"Plant response rating, Kochia",[22]; [29],0
same,"Plant response rating, I. Ryegrass","[23]; Rate 62 g/ha, 0 to 100 scale",0
same,"Plant response rating, I. Ryegrass","[23]; Rate 125 g/ha, 0 to 100 scale",0
same,"Plant response rating, I. Ryegrass",[23]; [29],0
same,"Plant response rating, LS canarygrass",[24]; [27],40
same,"Plant response rating, LS canarygrass",[24]; [28],80
same,"Plant response rating, LS canarygrass","[24]; Rate 250 g/ha, 0 to 100 scale",60
same,"Plant response rating, LS canarygrass","[25]; Rate 62 g/ha, 0 to 100 scale",0
same,"Plant response rating, LS canarygrass","[25]; Rate 125 g/ha, 0 to 100 scale",0
same,"Plant response rating, LS canarygrass",[25]; [29],0
same,"Plant response rating, Spring Barley","[26]; Rate 62 g/ha, 0 to 100 scale",0
same,"Plant response rating, Spring Barley","[26]; Rate 125 g/ha, 0 to 100 scale",0
same,"Plant response rating, Spring Barley",[26]; [29],0
